# Counter-ions that a name gives are not always drawn. Like-named read-outs stand apart in the source and are kept apart here.
# What was measured:
# [1] = Hydrochlorothiazide bio-study: urinary excretion, urine output and side effects after IR or GRD; type: in vivo, human; details: same dose, drug released in gastric fluid (GRD)
# Experimental: Two formulations for hydrochlorthiazide (an immediate release formulation (IR) and a gastric retention device (GRD) containing sustained release formulations (SR)) were administered in the bio-study (bioavailability study). A commercial tablet containing 50 mg of HCTZ was used as an IR control, and spray-coated beads equivalent to 50 mg of HCTZ were formulated for slow drug release (SR) and included in the GRF. Bioavailability and pharmacodynamics of HCTZ from a GRD were compared to those from an IR.
# Monitoring concentrations of hydrochlorthiazide in the urine of healthy adult volunteers allowed comparison of the relative bioavailability of hydrochlorthiazide from the GRD formulation and from a conventional tablet. […] An IR was given once and the GRD was repeated twice to test the reproducibility of the new dosage form. A 50-mg dose was chosen for the study because it was in the range of the recommended dose from the PDR (Physician's Desk References) and it produced concentrations high enough to make HPLC analysis efficient. Six subjects participated in the study, 4 healthy males and 2 healthy females. They were not allowed any food or drink containing caffeine, nor alcohol or other medications. Smokers and vegetarians were not included. […] The volume of urine collected was measured in order to calculate total amount of drug recovered.
# [2] = Procedure: All data fittings were performed on data from immediate-release formulations using WinNonlin software, version 3.2 (Pharsight Corporation, Mountain View, Calif.).
# [3] = prolonged release wax matrix formulation; cited from earlier work
# [4] = cited from earlier work
# [5] = commercial mixed pellets, cited from earlier work
# [6] = fitted from available plasma data (PDR), used in simulations
# From the text: These parameters are volume of distribution divided by fraction of dose absorbed (V/F), absorption rate constant (ka), and elimination rate constant (kel).
# [7] = 60 mg immediate-release riboflavin, fed subjects; cited from earlier work
# [8] = disintegrating tablets from pellets coated with cellulose acetate phthalate; cited from earlier work
# [9] = fitted to literature data of immediate-release formulation
structure (smiles),measurement,setting,value
NS(=O)(=O)c1cc2c(cc1Cl)NCNS2(=O)=O [Hydrochlorothiazide],Adverse reactions reported,[1],No adverse reactions were reported
CNC(=C[N+](=O)[O-])NCCSCc1ccc(CN(C)C)o1 [Ranitidine hydrochloride],absorption rate constant,"[2]; human, in vivo",0.641
same,kel,"[2]; human, in vivo",0.239 h⁻¹
Cc1cc2nc3c(=O)[nH]c(=O)nc-3n(C[C@H](O)[C@H](O)[C@H](O)COP(=O)(O)O)c2cc1C [Riboflavin-5-phosphate],absorption rate constant,[2]; [9],3.67
same,kel,[2]; [9],0.32 h⁻¹
CC1(C)S[C@@H]2[C@H](NC(=O)[C@H](N)c3ccc(O)cc3)C(=O)N2[C@H]1C(=O)O [amoxicillin],Amoxicillin released in 6 hours,[3],19%
CC(=O)Oc1ccc(C(c2ccc(OC(C)=O)cc2)c2ccccn2)cc1 [bisacodyl],Liberation of bisacodyl in 0.1 M HCl,[4]; coating of mixture of Eudagrit L and Eudgrit NE,approximately 4 % w/w
same,Liberation of bisacodyl in phosphate buffer within 45 min,"[4]; pH 6.8, polymer 1",100%
same,Liberation of bisacodyl in phosphate buffer within 45 min,"[4]; pH 6.8, polymer 2",40%
same,Liberation of bisacodyl in phosphate buffer,"[4]; pH 7.2, polymer 2",100%
same,Bisacodyl liberated in acidic media after tableting,[4]; pellets coated with 25% w/w of one of the new polymers,4-5 % w/w
C[C@H](N)Cc1ccccc1 [d-Amphetamine],Observed Cmax,"[5]; Fasted, 30 mg",40.2 ng/mL
same,Observed Cmax,"[5]; Fed, 20 mg",25.3 ng/mL
same,ka,[6],0.744 h⁻¹
Cc1cc2nc3c(=O)[nH]c(=O)nc-3n(C[C@H](O)[C@H](O)[C@H](O)CO)c2cc1C [riboflavin],Bioavailability,[7],36.4%
Cc1cc(NS(=O)(=O)c2ccc(N)cc2)no1 [sulfametoxazole],Drug liberated within 2 hours in artificial gastric fluid,[8],more than 10%
